{"source": "patent US10813951B2", "about": "“Method of engineering chemotherapy drug resistant T-cells for immunotherapy” (CELLECTIS, priority 2013, dated 2020)", "key": {"WT T cells [1]": {"test_system": "WT T cells", "test": "6TG IC50, T cell viability", "format": "cell-based", "details": "FIG. 27", "experimental": "(§1) Such inactivation confers 6TG resistance that contrasts with the sensitivity of WT T cells to this drug. IC50 can be approximately determined to 10 nM and >100 μM for WT and HPRT KO T cells respectively."}, "HPRT KO T cells": {"test_system": "HPRT KO T cells", "test": "6TG IC50, T cell viability", "format": "cell-based", "details": "FIG. 27", "experimental": "as §1"}, "[2]": {"details": "clinically relevant dose for ALL treatment, reported by EMA; cited from earlier work"}, "WT T cells [3]": {"test_system": "WT T cells", "test": "Clofarabine IC50, T cell viability by FACS", "format": "cell-based", "details": "48 h, 2 days incubation with clofarabine 0 to 10 μM, FIG. 8, read-out: IC50 (amount of drug to decrease cell viability to 50%)", "experimental": "(§2) FIG. 8 represents the percentage of cell viability of WT and dCK KO T cells (treated with 5 μg or 10 μg of mRNA encoding dCK2 TALE-nuclease pair) cultured for two days in the presence of increasing amount of clofarabine (10 nM to 10 μM). This graph allows to determine the Clofarabine IC50 toward both cell populations;\n(§3) To further investigate the ability of T cells to resist to clofarabine, IC50 for this drug was determined on dCK KO and WT T cells. The cells were collected 3 days after transfection were incubated for 2 days in the presence of increasing concentration of clofarabine (0 to 10 μM). At the end of clofarabine incubation, viability of T cells was determined by FACS analysis2.\n(§4) The results presented in FIG. 8 show clearly that the processing of dCK gene mediated by TALE-nucleases efficiently inactivates dCK activity in T cells. Such inactivation correlates to clofarabine resistance, contrasting with the sensitivity of WT T cells. The IC50 values (amount of drug to add in the media to decrease cell viability to 50%) correspond respectively to about 100 nM and 10 μM for WT and dCK KO T cells."}, "dCK KO T cells": {"test_system": "dCK KO T cells", "test": "Clofarabine IC50, T cell viability by FACS", "format": "cell-based", "details": "48 h, 2 days incubation with clofarabine 0 to 10 μM, FIG. 8, read-out: IC50 (amount of drug to decrease cell viability to 50%)", "experimental": "as §2, §3, §4"}, "[4]": {"test_system": "CAR T cells negative control", "test": "Sensitivity of CAR T cells to clofarabine and fludarabine (cell viability)", "format": "cell-based", "quoted_text": "(§7) These graphs allows determination of IC50 for both drugs clofarabine and fludarabine;\n(§8) T cells were grown with or without clofarabine between D3 and D8 (see workflow 2 in FIG. 9), then they were incubated for 2 days (from D15 to D17) in media with different concentrations of clofarabine. T cells viability was then assessed by FACS analysis using the count bright kit.\n(§9) These cells were then used to determined their sensitivity for clofarabine and fludarabine as performed before."}, "[5]": {"test_system": "double KO dCK/TCAR CAR T-cells", "test": "Growth rate of double KO CAR T-cells in the presence of clofarabine", "format": "cell-based", "details": "11 days, clofarabine 0.1 μM to 10 μM, FIG. 14", "experimental": "This experiment was performed on double KO dCK/TCAR T CAR T-cells (FMC63 which is described in patent application having the filing number PCT/EP2014/059662.) by culturing these cells during 11 days in media having different clofarabine (from 0.1 μM to 10 μM)."}, "dCK/TRAC KO CAR T cells": {"test_system": "dCK/TRAC KO CAR T cells", "test": "Sensitivity of CAR T cells to clofarabine and fludarabine (cell viability)", "format": "cell-based", "quoted_text": "as §7, §8, §9"}, "dCK KO Daudi cells": {"test_system": "dCK KO Daudi cells", "test": "Growth of Daudi cells in media with clofarabine", "format": "cell-based", "details": "up to 1 μM clofarabine, FIG. 19", "experimental": "(§5) FIG. 19 represents the growth rate (expressed in ×10^6 cells) for a period of 7 days of KO dCK Daudi cells versus WT Daudi cells in the absence or presence of increasing amounts of clofarabine (0.1 to 1 μM);\n(§6) Daudi cells were cultured in media having different concentrations of clofarabine (0; 0.1; 0.25; 0.5 and 1 μM) for several days and counted at each passage."}, "WT Daudi cells": {"test_system": "WT Daudi cells", "test": "Growth of Daudi cells in media with clofarabine", "format": "cell-based", "details": "clofarabine 0.1 to 1 μM, FIG. 19", "experimental": "as §5, §6"}}, "note": "Where two headings read alike, the source gives them in different places.", "data": [{"smiles": "Nc1nc2nc[nH]c2c(=S)[nH]1", "note": "[6TG, 6-thioguanine]", "values": [{"measurement": "IC50", "setting": "WT T cells [1]", "value": "~10", "unit": "nM"}, {"measurement": "IC50", "setting": "HPRT KO T cells", "value": "> 100000", "unit": "nM"}]}, {"smiles": "Nc1nc(Cl)nc2c1ncn2[C@@H]1O[C@H](CO)[C@@H](O)[C@@H]1F", "note": "[clofarabine]", "values": [{"measurement": "Cmax", "setting": "[2]", "value": 1000, "unit": "nM"}, {"measurement": "IC50", "setting": "WT T cells [3]", "value": "~100", "unit": "nM"}, {"measurement": "IC50", "setting": "dCK KO T cells", "value": "~10000", "unit": "nM"}, {"measurement": "IC50", "setting": "[4]; CAR T cells negative control, FIG. 17, read-out: IC50 clofarabine", "value": 0.1, "unit": "nM"}, {"measurement": "cell expansion in presence of clofarabine", "setting": "[5]", "value": "correct up to the 1 μM"}, {"measurement": "IC50", "setting": "dCK/TRAC KO CAR T cells; dCK/TRAC KO CAR T cells (FMC63), FIG. 17, read-out: IC50 clofarabine", "value": 500, "unit": "nM"}, {"measurement": "growth of cells in presence of clofarabine", "setting": "dCK KO Daudi cells", "value": "able to grow"}, {"measurement": "growth of cells in presence of clofarabine", "setting": "WT Daudi cells", "value": "clearly impaired"}]}, {"smiles": "Nc1nc(F)nc2c1ncn2[C@@H]1O[C@H](CO)[C@@H](O)[C@@H]1O", "note": "[fludarabine]", "values": [{"measurement": "IC50", "setting": "[4]; T CAR control, FIG. 17, read-out: IC50 fludarabine", "value": 10000, "unit": "nM"}, {"measurement": "IC50", "setting": "dCK/TRAC KO CAR T cells; double KO CAR T cells, FIG. 17, read-out: IC50 fludarabine", "value": 400000, "unit": "nM"}]}]}
